From patent US20110294843A1, “ADMINISTRATION SCHEME OF POLAR OPIOID METABOLITES FOR POST-OPERATIVE PAIN MANAGEMENT” (PAION UK Limited, priority 2008, published 2011)
Like-named read-outs stand apart in the source and are kept apart here.

Tests used:
[1] = test system: patients following major abdominal surgery; test: M6G022 study: analgesic efficacy and tolerability of M6G and morphine following major abdominal surgery
Procedure: Pain relief, nausea and emesis were recorded for 24 to 48 hours after start of the patient controlled analgesia.
The study site personnel (with the exception of the pharmacy); representatives of the sponsoring company; and the organisation involved in monitoring, data management, or other aspects of the study were blinded to the study treatment. The use of midazolam, temazepam, zopiclone or other short-acting pre-operative anxiolytics was allowed. All patients received a standardised general anaesthetic consisting of propofol induction, with either isoflurane or sevoflurane maintenance. These inhalational agents are associated with a similar risk of PONV. Nitrous oxide was not allowed because of its emetic effects, and the risk of an imbalance in its use. An initial bolus of 1-3 μg/kg of fentanyl or 0.1-0.3 μg/kg of sufentanyl followed by further doses as required, was used for pre- and peri-operative analgesia. Post-operative analgesia was provided by the study drug.
The investigator could administer up to 5 ml of PCA study drug, on no more than two occasions in each 24 hour post-operative period, as rescue medication if the patient was in uncontrolled pain. […] The patients stayed on PCA for a minimum of 24 hours following surgery, but could continue up to 48 hours if clinically indicated.
No prophylactic antiemetic was given, although iv ondansetron (4 mg/2 ml) was available if the patient experienced severe nausea, or immediately following emesis. If this was ineffective further doses of ondansetron; or other agents such as cyclizine, prochlorperazine or perphenazine; were allowed.
Pain intensity at rest was assessed by the patients using the VRS-11 scale at baseline, 15, 30 and 45 minutes and 1, 2, 4, 6, 9, 12, 15, 18, 21 and 24 hours after the start of PCA. A numerical scale was chosen because of the practical difficulty for post-operative patients of completing a visual analogue scale. If the patient remained on PCA after 24 hours, the pain scores were recorded every 8 hours up to 48 hours. In addition, at the end of the study the patients and observers were asked to assess the acceptability of their pain relief over the entire study using a 5 point rating global scale ranging from very poor (1) to excellent (5). […] The total consumption of study drugs was calculated.
Emesis risk factors of female gender; history of motion sickness or PONV; or smoking status were recorded at screening. Post-operative nausea was assessed by the patient using a 4 point ordinal scale (none, mild, moderate, severe) and occurrence of vomiting or dry retching recorded (yes/no; and if yes, the number of episodes) pre-operatively (Day −1), at baseline, and at 1, 2, 4, 6, 9, 12, 15, 18, 21, 24, 32, 40 and 48 hours after administration of the test analgesic. Nausea and vomiting were also combined in a single scoring system (postoperative nausea & vomiting, PONV), with an episode of vomiting or dry retching being scored as a 3 (severe) on the nausea scale.
Sedation was assessed using a combination of a binary question (sleepy, yes or no) and a 3 point ordinal scale (mild, moderate, severe) if the patient was sedated. All adverse events were recorded, along with concomitant medication use, with particular attention being paid to the use of anti-emetics.
The Intention to Treat (ITT) set of patients comprised all those who had been exposed to study medication at least once. This analysis set was the basis for the main efficacy and all safety and demographic analyses. Data were double entered using interactive verification into a CLINTRIAL database (Version 3.3.3, Phase Forward, Waltham, Mass., USA), and analysed using SAS (version 8.2, SAS Institute Inc., Cary, N.C., USA).

[2] = test system: patients following hip-replacement surgery; test: M6G001A study: post-operative analgesia following hip-replacement surgery; format: in vivo, human; conditions: all doses (10, 15, 20 mg/70 kg IV bolus followed by PCA)
From the text: . This was a double-blind, randomised study. […]

[3] = test system: patients following hip-replacement surgery; test: M6G012 study: acute pain following hip-replacement surgery under general anaesthetic; format: in vivo, human; conditions: 30 mg/70 kg at skin closure, four hour post-operative period
[4] = prior experimental human and clinical studies; cited from earlier work
[5] = literature, cited from earlier work

CN1CC[C@]23c4c5ccc(O)c4O[C@H]2[C@@H](OC2OC(C(=O)O)C(O)C(O)C2O)C=CC3[C@H]1C5 (stereo partly drawn) [M6G, (5α,6α)-7,8-Didehydro-4,5-epoxy-3-hydroxy-17-methylmorphinan-β-yl-β-D-glucopyranosiduronic acid]
reduction of AUC for vomiting and dry retching in favour of M6G ([1]; 0-24 hours): 32.3%
mean totals of PCA demands ([1]; 4-48 h): 53.1
reduction of AUC for vomiting and dry retching in favour of M6G ([1]; 6-24 hours): 34.2%
Reduction of PONV AUC, M6G vs morphine ([1]; AUC 0-6 h): 27.0%
Reduction of PONV AUC, M6G vs morphine ([1]; AUC 0-12 h): 26.3%
Reduction of PONV AUC, M6G vs morphine ([1]; AUC 0-24 h): 24.3%
Reduction of PONV AUC, M6G vs morphine ([1]; AUC 6-24 h): 28.5%
Reduction of PONV AUC, M6G vs morphine ([1]; AUC 12-24 h): 24.5%
Reduction of PONV AUC, M6G vs morphine ([1]; AUC 24-48 h): 10.3%
patients with sedation score recorded as severe ([1]; baseline): 20.9%
patients sedated ([1]; baseline (when given control of the PCA button)): 75.7%
mean totals of PCA demands ([1]; early post-operative period (up to 4 hours)): 33.5
magnitude of reduction of PONV ([1]; initial 24 hours post-operatively): 24-29%
dose required to achieve comfort initially ([1]; loading and recovery doses before PCA): 45.0 mg/70 kg
difference between the adjusted means of pain intensity AUCs for M6G and morphine ([1]; over the 24 hours, VRS-11): +3.318
pain intensity compared with morphine ([1]; whole 24 hour period): non-inferior to morphine
tolerability [2]: well tolerated
pain (VAS) compared with 10 mg/70 kg morphine at skin closure [3]: non-inferior
potency ratio morphine and M6G [4]: 3 to 1
Log P ([5]; Avdeef et al. 1996): −0.76
Log P ([5]; Gaillard et al. 1994, calculated from lipophilicity potential): −1.3
Log P ([5]; Wu et al. 1997): −2.95
